Data taken from US7803757B2, “Peptides based on the sequence of human lactoferrin and their use” (PharmaSurgics in Sweden AB, priority 1998, dated 2010).
Bridge positions count the residues as written; N and C are the ends. Square brackets hold non-standard residues; d marks the D form. Ends that are not written are not given here. * marks the point of attachment. Nle = CCCC[C@H](N)C(=O)O; Acm = CC(=O)NC*

Experiments:
Type in all cases: cell-based
[1] = tested on: C. albicans; experiment: MMC99% of modified peptides, C. albicans (Example 26); conditions: BHI diluted 1/100, pH approximately 6.7-6.9 (Table 22)
Experimental: (§1) In the examples, the minimal microbicidal concentrations (MMC) and minimal inhibitory concentrations (MIC) were determined as follows, unless otherwise specified in the examples. Bacterial or fungal strains were cultured in BHI medium over night at 37° C. A volume of the culture was transferred to a new tube with BHI and incubated for two more hours. Thereafter the cells were spun down and the pellet was suspended in BHI medium diluted 1/100 (1% BHI). The concentration of bacterial or fungal cells was spectrophotometrically determined at 650 nm. The microbial concentrations were also determined by viable counts. Peptides serially diluted in 1% BHI by twofold or tenfold steps were added in triplicate to the wells of a microtiterplate (200 μl per well). The bacterial or fungal cell solutions were added in 10 μl volumes to give a final concentration of approximately 1-5×10^5 cells per ml in the well. The microplate was incubated at 37° C. in a humid chamber for two hours. Thereafter 5 μl was taken from each well and added as a drop onto a blood agar plate and incubated over night at 37° C. The microplate was incubated for another 20 hours at 37° C. and thereafter analysed spectrophotometrically at 650 nm in a microplate reader (Emax, Molecular Devices, USA). The concentration of peptide causing a 99% reduction of the inoculum after 2 hours of incubation was defined as the MMC99%. The MIC value was defined as the concentration giving no increase in the absorbance value above the background level after 20 hours of incubation.
(§2) In this example the fungicidal, and bactericidal effects of the different peptides obtained in example 22 were studied. C. albicans, E. coli and S. aureus, respectively, were incubated in BHI medium diluted 1/100, with a pH of approximately 6.7-6.9. The concentration of each peptide needed to kill 99% of the microorganisms (MMC99%) was determined.

[2] = tested on: E. coli; experiment: MMC99% of modified peptides, E. coli (Example 26); conditions: BHI diluted 1/100, pH approximately 6.7-6.9 (Table 22)
Experimental: as §1, §2

[3] = tested on: S. aureus; experiment: MMC99% of modified peptides, S. aureus (Example 26); conditions: BHI diluted 1/100, pH approximately 6.7-6.9 (Table 22)
Experimental: as §1, §2

[4] = tested on: E. coli O6K5; experiment: microbicidal activity MMC99%, E. coli O6K5 (Example 28); conditions: E. coli O6K5 (Table 24)
Experimental: as §1
(§3) In this example the microbicidal activity of eight of the peptides according to the invention was studied, and tested against E. coli O6K5 and C. albicans.
(§4) The concentration of each peptide needed to kill 99% of the microorganisms (MMC99%) was determined.

[5] = tested on: C. albicans; experiment: microbicidal activity MMC99%, C. albicans (Example 28); conditions: C. albicans (Table 24)
Experimental: as §1, §3, §4

[6] = tested on: C. albicans; experiment: MMC99% of modified peptides, C. albicans (Example 25); conditions: BHI diluted 1/100, pH approximately 6.7-6.9 (Table 21)
Experimental: as §1
(§5) In this example the fungicidal, and bactericidal effects of the different peptides obtained in examples 18-21 were studied. C. albicans, E. coli and S. aureus, respectively, were incubated in BHI medium diluted 1/100, with a pH of approximately 6.7-6.9. The concentration of each peptide needed to kill 99% of the microorganisms (MMC99%) was determined.

[7] = tested on: E. coli; experiment: MMC99% of modified peptides, E. coli (Example 25); conditions: BHI diluted 1/100, pH approximately 6.7-6.9 (Table 21)
Experimental: as §1, §5

[8] = tested on: S. aureus; experiment: MMC99% of modified peptides, S. aureus (Example 25); conditions: BHI diluted 1/100, pH approximately 6.7-6.9 (Table 21)
Experimental: as §1, §5

[9] = tested on: E. coli O14; experiment: bactericidal activity against E. coli O14, comparison with EP-A-0 629 347 peptides (Example 7)
Experimental: (§6) In this example an in vitro test was performed to compare the bactericidal and fungicidal activity of the peptides according to the invention with peptides described in EP-A-0 629 347. The peptide according to the invention used was peptide 4, and the peptides according to EP-A-0 629 347 called Morinaga 10, Morinaga 11, Morinaga 12, and Morinaga 13.
(§7) The peptides were incubated with E. coli O14 and Candida albicans. Two concentrations of C. albicans yeast cells were tested, 5·10^6 and 5·10^3 per ml. Different concentrations of the peptides were tested.
(§8) After the incubation, samples were taken for bacterial plating. Serial dilutions of tenfold steps were used in the experiments marked with I in table 5 and of twofold steps in the experiments marked with II.

[10] = tested on: Candida albicans; experiment: fungicidal activity against Candida albicans, comparison with EP-A-0 629 347 peptides (Example 7); conditions: C. albicans, I (tenfold steps)
Experimental: as §6, §7, §8

[11] = tested on: Candida albicans ATCC 64549; experiment: fungicidal and growth inhibitory activity, Candida albicans ATCC 64549 (Example 8); conditions: for Concentration of agent for 100% killing: C. albicans ATCC 64549 1·10^5/ml, 2 hours 37° C., diluted BHI; for Concentration of agent for inhibition of growth: C. albicans ATCC 64549, spectrophotometrically after 20 hours
Experimental: Candida albicans ATCC 64549 (1·10^5/ml) was incubated in the presence of the peptides during 2 hours at 37° C. in diluted growth medium (BHI, twofold serial dilutions starting with 50 μg/ml). The fungicidal activity was measured by culturing 5 μl from each incubation well on Saboroud agar plates.
The inhibition of growth was measured spectrophotometrically after 20 hours of incubation.

[12] = tested on: E. coli O14; experiment: bactericidal and growth inhibitory activity, E. coli O14 (Example 9); conditions: for Concentration of agent for 100% killing: E. coli O14, 2 hours; for Concentration of agent for inhibition of growth: E. coli O14, spectrophotometrically after 20 hours
Experimental: E. coli O14 was incubated as described above in the presence of the peptides during 2 hours. The bactericidal activity was measured in the same way as described above.
The inhibition of growth was measured spectrophotometrically after incubation during 20 hours.

[13] = tested on: C. albicans (ATCC64549)
Experimental: as §1
(§9) C. albicans (ATCC64549) and E. coli O6, respectively, were incubated with the different peptides. The experiments were performed with 1, 10, 25 and 100 μg/ml of peptide.

[14] = tested on: E. coli O6
Experimental: as §1, §9

[15] = tested on: C. albicans yeast cells (ATCC64549); experiment: killing and growth inhibition of C. albicans at pH 4.5 (Example 11); design: key to C. albicans inhibition (OD650): + = no increase in OD650 is seen; − = OD650 continues to increase; conditions: pH 4.5, 1% BHI, 25 μg/ml of the peptide
Experimental: C. albicans yeast cells (ATCC64549) were incubated for 2 hours at pH 4.5 in BHI medium diluted to 1% of the original concentration containing 25 µg/ml of the peptide. Thereafter the fungal solutions were cultured on blood agar plates. OD650 was measured after incubation during an additional 18 hours. The fungicidal effect of the peptides on C. albicans was determined as the ability of the peptide to kill 100% and 99%, respectively, of the fungus, while the growth inhibitory effect was determined by measuring the OD650. An inhibitory effect existed when no increase in OD650 was recorded.

[16] = tested on: E. faecalis; experiment: killing of bacteria at fixed peptide concentration, E. faecalis (Example 12); conditions: peptide 25 μg/ml
Experimental: (§10) In this example, the peptides according to the invention were used to study the effect on the killing of different bacteria.
(§11) The peptides were used at a concentration of 25 μg/ml.

[17] = tested on: S. epidermis; experiment: killing of bacteria at fixed peptide concentration, S. epidermis (Example 12); conditions: peptide 25 μg/ml
Experimental: as §10, §11

[18] = tested on: S. aureus; experiment: killing of bacteria at fixed peptide concentration, S. aureus (Example 12); conditions: peptide 25 μg/ml
Experimental: as §10, §11

[19] = tested on: K. pneumoniae; experiment: killing of bacteria at fixed peptide concentration, K. pneumoniae (Example 12); conditions: peptide 25 μg/ml
Experimental: as §10, §11

[20] = tested on: P. aeruginosa; experiment: killing of bacteria at fixed peptide concentration, P. aeruginosa (Example 12); conditions: peptide 25 μg/ml
Experimental: as §10, §11

[21] = E. coli O14, I: serial dilutions of tenfold steps

C-F-A-L-K-K-A-M-K-K-V-R (CFALKKAMKKVR) [SEQ. ID. NO. 96]
MMC99% [1]: 12
MMC99% [2]: 6
MMC99% [3]: 12

C-F-A-W-K-R-N-M-R-K-V-R (CFAWKRNMRKVR) [SEQ. ID. NO. 93]
MMC99% [1]: 12
MMC99% [2]: 6
MMC99% [3]: 6
MMC99% [4]: 5
MMC99% [5]: 5

C-F-A-W-Q-R-A-M-R-K-V-R (CFAWQRAMRKVR) [SEQ. ID. NO. 94]
MMC99% [1]: 12
MMC99% [2]: 6
MMC99% [3]: 6

C-F-Q-L-Q-K-N-M-K-K-V-R (CFQLQKNMKKVR) [SEQ. ID. NO. 95]
MMC99% [1]: 12
MMC99% [2]: 6
MMC99% [3]: 6

C-F-Q-W-K-R-N-M-R-K-V-R (CFQWKRNMRKVR) [SEQ. ID. NO. 91]
MMC99% [1]: 6
MMC99% [2]: 6
MMC99% [3]: 6
MMC99% [4]: 5
MMC99% [5]: 5

C-F-Q-W-Nle-R-N-M-R-K-V-R (CFQW[Nle]RNMRKVR) [SEQ. ID. NO. 88]
MMC99% [6]: 6
MMC99% [7]: 12
MMC99% [8]: 3.5
MMC99% [4]: 5
MMC99% [5]: 10

F-Q-W-Q-R [Morinaga 11]
Concentration of agent for 100% killing [9, 21]: >500 µg/mL
Concentration of agent for 100% killing ([10]; 5 · 10^3 yeast cells per ml): >2000 µg/mL
Concentration of agent for 100% killing ([10]; 5 · 10^6 yeast cells per ml): >2000 µg/mL

F-Q-W-Q-R-N (FQWQRN) [Morinaga 10]
Concentration of agent for 100% killing [9, 21]: >500 µg/mL
Concentration of agent for 100% killing ([9]; E. coli O14, II: serial dilutions of twofold steps): 1000 µg/mL
Concentration of agent for 100% killing ([10]; 5 · 10^3 yeast cells per ml): >2000 µg/mL
Concentration of agent for 100% killing ([10]; 5 · 10^6 yeast cells per ml): >2000 µg/mL

KCFQWQRNMRKVRGPPVSCI [Morinaga 24] (KCFQWQRNMRKVRGPPVSCI; also: cyclic peptide, ring type not given here) [reference compound]
Concentration of agent for 100% killing [11]: 12.5 µg/mL
Concentration of agent for inhibition of growth [11]: 12.5 µg/mL
Concentration of agent for 100% killing [12]: 25 µg/mL
Concentration of agent for inhibition of growth [12]: 6.2 µg/mL

KCFQWQRNMRKVRGPPVSCI [Morinaga 25] (KCFQWQRNMRKVRGPPVSCI) [reference compound]
Concentration of agent for 100% killing [11]: 6.2 µg/mL
Concentration of agent for inhibition of growth [11]: 6.2 µg/mL
Concentration of agent for 100% killing [12]: 12.5 µg/mL
Concentration of agent for inhibition of growth [12]: 3.1 µg/mL

Peptide 2: SEQ. ID. NO. 1 with X1 E, X2 A, X5 C, X7 Q, X11 N, X17-25 G-P-P-V-S-C-I-K-R; cysteines acetamidomethyl protected (Ac-EATKC(Acm)FQWQRNMRKVRGPPVSC(Acm)IKR-NH2)
Concentration of agent for 100% killing [11]: 6.2 µg/mL
Concentration of agent for inhibition of growth [11]: 6.2 µg/mL
Concentration of agent for 100% killing [12]: 25 µg/mL
Concentration of agent for inhibition of growth [12]: 6.2 µg/mL

Q-W-Q-R [Morinaga 12]
Concentration of agent for 100% killing [9, 21]: >500 µg/mL
Concentration of agent for 100% killing ([10]; 5 · 10^3 yeast cells per ml): >2000 µg/mL
Concentration of agent for 100% killing ([10]; 5 · 10^6 yeast cells per ml): >2000 µg/mL

SEQ. ID. NO. 55: modification of SEQ. ID. NO. 7 wherein the Asp in position 9 is substituted with a Glu (TKAFKWQREMRKVR; lactam 5-9)
MMC99% [4]: 5
MMC99% [5]: 5

SEQ. ID. NO. 97: listed under the third and fourth embodiments; sequence only in the appended sequence listing (CFALKKAMKKVR)
MMC99% [1]: 12
MMC99% [2]: 6
MMC99% [3]: 6

TKCFQWQRNMRKVR [Peptide 50]
MIC ([13]; ATCC64549): 10 µg/mL
MMC99% ([13]; C. albicans, tested at 1, 10, 25 and 100 μg/ml of peptide): 10 µg/mL
MMC99% ([14]; E. coli O6, tested at 1, 10, 25 and 100 μg/ml of peptide): 10 µg/mL
MIC ([14]; O6): 10 µg/mL
C. albicans inhibition (OD650) ([15]; OD650 after an additional 18 hours): +
C. albicans killing: 99% ([15]; 2 hours): + (+ = 100/99% of the bacteria are killed)
C. albicans killing: 100% ([15]; 2 hours): + (+ = 100/99% of the bacteria are killed)
killing of bacteria: E. faecalis [16]: + (+ = 99% of the bacteria are killed)
killing of bacteria: S. epidermis [17]: + (+ = 99% of the bacteria are killed)
killing of bacteria: S. aureus [18]: + (+ = 99% of the bacteria are killed)
killing of bacteria: K. pneumoniae [19]: + (+ = 99% of the bacteria are killed)
killing of bacteria: P. aeruginosa [20]: + (+ = 99% of the bacteria are killed)

W-Q-R [Morinaga 13]
Concentration of agent for 100% killing [9, 21]: >500 µg/mL
Concentration of agent for 100% killing ([10]; 5 · 10^3 yeast cells per ml): >2000 µg/mL
Concentration of agent for 100% killing ([10]; 5 · 10^6 yeast cells per ml): >2000 µg/mL
